US20050182252A1, “Novel 2'-C-methyl nucleoside derivatives” (priority 2004, published 2005)
Counter-ions that a name gives are not always drawn.

SMILES	melting point [°C]
C[C@@]1(O)[C@H](O)[C@@H](COP2(=O)O[C@H](c3ccccc3)C[C@H](c3ccccc3)O2)O[C@H]1n1ccc2c(N)ncnc21 (stereo partly drawn) (as salt: trifluoroacetic acid salt) [Compound 16.16, 4-amino-7-(cis-5′-O-[4,6-cis-diphenyl-2-oxo-1,3,2-dioxaphosphorinan-2-yl]-2′-C-methyl-beta-D-ribofuranosyl)-7H-pyrrolo[2,3-d]pyrimidine trifluoroacetic acid salt]	140 to 143
C[C@@]1(O)[C@H](O)[C@@H](COP2(=O)OCC[C@H](c3ccc(F)c(Cl)c3)O2)O[C@H]1n1ccc2c(N)ncnc21 (stereo partly drawn) [Compound 16.3, 4-amino-7-(cis-5′-O-[4-(3-chloro-4-fluorophenyl)-2-oxo-1,3,2-dioxaphosphorinan-2-yl]-2′-C-methyl-beta-D-ribofuranosyl)-7H-pyrrolo[2,3-d]pyrimidine]	128 to 130
C[C@@]1(O)[C@H](O)[C@@H](CO[P@]2(=O)OCC[C@H](c3ccncc3)O2)O[C@H]1n1ccc2c(N)ncnc21 [Compound 16.30, 4-amino-7-(cis-5′-O-[4-(R)-(pyridin-4-yl)-2-oxo-1,3,2-dioxaphosphorinan-2-yl]-2′-C-methyl-beta-D-ribofuranosyl)-7H-pyrrolo[2,3-d]pyrimidine]	132 to 136
C[C@@]1(O)[C@H](O)[C@@H](CO[P@@]2(=O)OCC[C@@H](c3ccncc3)O2)O[C@H]1n1ccc2c(N)ncnc21 [Compound 16.7]	183 to 185
C[C@@]1(O)[C@H](O)[C@@H](COP2(=O)OCC[C@H](c3ccc(F)c(Br)c3)O2)O[C@H]1n1ccc2c(N)ncnc21 (stereo partly drawn) (as salt: salt) [Compound 16.31]	122 to 125
C[C@@]1(O)[C@H](O)[C@@H](COP2(=O)OCCC(c3cccc(Cl)c3)O2)O[C@H]1n1cnc2c(N)ncnc21 (stereo partly drawn) [Compound 18, 5′-O-[4-(3-chlorophenyl)-2-oxo-1,3,2-dioxaphosphorinan-2-yl]-2′-C-methyladenosine]	153
C[C@@]1(O)[C@H](O)[C@@H](COP2(=O)OC[C@@H](c3ccccc3)[C@@H](c3ccccc3)O2)O[C@H]1n1ccc2c(N)ncnc21 (stereo partly drawn) [Compound 16.22, 4-amino-7-(trans-5′-O-[4,5-cis-diphenyl-2-oxo-1,3,2-dioxaphosphorinan-2-yl]-2′-C-methyl-beta-D-ribofuranosyl)-7H-pyrrolo[2,3-d]pyrimidine]	160 to 163
C[C@@]1(O)[C@H](O)[C@@H](COP2(=O)OCC[C@H](c3cc(F)cc(F)c3)O2)O[C@H]1n1ccc2c(N)ncnc21 (stereo partly drawn) [Compound 16.27, 4-amino-7-(cis-5′-O-[-4-(3,5-difluorophenyl)-2-oxo-1,3,2-dioxaphosphorinan-2-yl]-2′-C-methyl-beta-D-ribofuranosyl)-7H-pyrrolo[2,3-d]pyrimidine]	135 to 140
C[C@@]1(O)[C@H](O)[C@@H](COP2(=O)OCC[C@@H](c3cncc(Br)c3)O2)O[C@H]1n1ccc2c(N)ncnc21 (stereo partly drawn) [Compound 16.11, 4-amino-7-(cis-5′-O-[4-(5-bromopyridin-3-yl)-2-oxo-1,3,2-dioxaphosphorinan-2-yl]-2′-C-methyl-beta-D-ribofuranosyl)-7H-pyrrolo[2,3-d]pyrimidine]	132 to 135
C[C@@]1(O)[C@H](O)[C@@H](COP2(=O)OC3CCCCC3[C@@H](c3ccccc3)O2)O[C@H]1n1ccc2c(N)ncnc21 (stereo partly drawn) [Compound 16.42, 4-amino-7-(cis-5′-O-[4-phenyl-5,6-tetramethylene-2-oxo-1,3,2-dioxaphosphorinan-2-yl]-2′-C-methyl-beta-D-ribofuranosyl)-7H-pyrrolo[2,3-d]pyrimidine]	110 to 113
C[C@@]1(O)[C@H](O)[C@@H](COP2(=O)OCC[C@H](c3cc(Cl)cc(Cl)c3)O2)O[C@H]1n1ccc2c(N)ncnc21 (stereo partly drawn) [Compound 16.26, 4-amino-7-(cis-5′-O-[4-(3,5-dichlorophenyl)-2-oxo-1,3,2-dioxaphosphorinan-2-yl]-2′-C-methyl-beta-D-ribofuranosyl)-7H-pyrrolo[2,3-d]pyrimidine]	182 to 185
C[C@@]1(O)[C@H](O)[C@@H](COP2(=O)OCC[C@H](c3cccc(F)c3F)O2)O[C@H]1n1ccc2c(N)ncnc21 (stereo partly drawn) (as salt: trifluoroacetic acid salt) [Compound 16.36, 4-amino-7-(cis-5′-O-[4-(2,3-difluorophenyl)-2-oxo-1,3,2-dioxaphosphorinan-2-yl]-2′-C-methyl-beta-D-ribofuranosyl)-7H-pyrrolo[2,3-d]pyrimidine trifluoroacetic acid salt]	177 to 180
C[C@@]1(O)[C@H](O)[C@@H](CO[P@]2(=O)OCC[C@H](c3cccc(Cl)c3)O2)O[C@H]1n1ccc2c(N)ncnc21 [Compound 16.28, 4-amino-7-(cis-5′-O-[4-(R)-(3-chlorophenyl)-2-oxo-1,3,2-dioxaphosphorinan-2-yl]-2′-C-methyl-beta-D-ribofuranosyl)-7H-pyrrolo[2,3-d]pyrimidine]	126 to 128
C[C@@]1(O)[C@H](O)[C@@H](COP2(=O)OCC[C@H](c3ccccc3F)O2)O[C@H]1n1ccc2c(N)ncnc21 (stereo partly drawn) [Compound 16.39, 4-amino-7-(cis-5′-O-[4-(2-fluorophenyl)-2-oxo-1,3,2-dioxaphosphorinan-2-yl]-2′-C-methyl-beta-D-ribofuranosyl)-7H-pyrrolo[2,3-d]pyrimidine]	101 to 103
CO[C@H]1COP(=O)(OC[C@H]2O[C@@H](n3ccc4c(N)ncnc43)[C@](C)(O)[C@@H]2O)O[C@@H]1c1cccc(Cl)c1 (stereo partly drawn) (as salt: trifluoroacetic acid salt) [Compound 16.24]	140 to 143
C[C@@]1(O)[C@H](O)[C@@H](COP2(=O)OCC[C@H](c3cc(F)ccc3F)O2)O[C@H]1n1ccc2c(N)ncnc21 (stereo partly drawn) [Compound 16.2, 4-amino-7-(cis-5′-O-[4-(2,5-difluorophenyl)-2-oxo-1,3,2-dioxaphosphorinan-2-yl]-2-C-methyl-beta-D-ribofuranosyl)-7H-pyrrolo[2,3-d]pyrimidine]	145 to 148
C[C@@]1(O)[C@H](O)[C@@H](COP2(=O)OC[C@@H](c3ccccc3)[C@@H](c3ccccc3)O2)O[C@H]1n1ccc2c(N)ncnc21 (stereo partly drawn) (as salt: trifluoroacetic acid salt) [Compound 16.13, 4-amino-7-(cis-5′-O-14,5-cis-diphenyl-2-oxo-1,3,2-dioxaphosphorinan-2-yl]-2′-C-methyl-beta-D-ribofuranosyl)-7H-pyrrolo[2,3-d]pyrimidine trifluoroacetic acid salt]	174 to 177

The remaining lines, values ahead:

melting point [°C]	SMILES
145 to 165	C[C@@]1(O)[C@H](O)[C@@H](COP2(=O)OCC[C@H](c3cccc(C(F)(F)F)c3)O2)O[C@H]1n1ccc2c(=O)[nH]c(N)nc21 (stereo partly drawn) [Compound 17.24]
179 to 180	C[C@@]1(O)[C@H](O)[C@@H](CO)O[C@H]1n1ccc2c(N=[N+]=[N-])ncnc21 [Compound 25.1, 4-azido-7-(2′-C-methyl-beta-D-ribofuranosyl)-7H-pyrrolo[2,3-d]pyrimidine]
148 to 151	CO[C@@H]1COP(=O)(OC[C@H]2O[C@@H](n3ccc4c(=O)[nH]c(N)nc43)[C@](C)(O)[C@@H]2O)O[C@@H]1c1cccc(Cl)c1 (stereo partly drawn) [Compound 17.19]
182 to 185	CC(=O)O[C@@H]1[C@@H](COP2(=O)OCC[C@H](c3ccncc3)O2)O[C@@H](n2ccc3c(N)ncnc32)[C@]1(C)O (stereo partly drawn) [Compound 22.1, 4-amino-7-(3′-acetyl-cis-5′-O-[4-(S)-(pyridin-4-yl)-2-oxo-1,3,2-dioxaphosphorinan-2-yl]-2′-C-methyl-beta-D-ribofuranosyl)-7H-pyrrolo[2,3-d]pyrimidine]
118 to 120	C[C@@]1(O)[C@H](O)[C@@H](COP2(=O)OCC[C@@H](c3ccccn3)O2)O[C@H]1n1cnc2c(N)ncnc21 (stereo partly drawn) (as salt: trifluoroacetic acid salt) [Compound 21.7, cis-5′-O-[4-(pyridin-2-yl)-2-oxo-1,3,2-dioxaphosphorinan-2-yl]-2′-C-beta-methyl-adenosine trifluoroacetic acid salt]
180	C[C@@]1(O)[C@H](O)[C@@H](COP2(=O)OCC[C@H](c3ccccc3Br)O2)O[C@H]1n1ccc2c(=O)[nH]c(N)nc21 (stereo partly drawn) [Compound 17.21, 2-amino-7-(cis-5′-O-[4-(2-bromophenyl)-2-oxo-1,3,2-dioxaphosphorinan-2-yl]-2′-C methyl-beta-D-ribofuranosyl)-7H-pyrrolo[2,3-d]pyrimidin-4(3H)-one]
90 to 93	CC(=O)O[C@@H]1[C@@H](COP2(=O)OCC[C@H](c3cccc(Cl)c3)O2)O[C@@H](n2ccc3c(N)ncnc32)[C@]1(C)O (stereo partly drawn) [Compound 22.2, 4-amino-7-(3′-acetyl-cis-5′-O-[4-(S)-(3-chlorophenyl)-2-oxo-1,3,2-dioxaphosphorinan-2-yl]-2′-C-methyl-beta-D-ribofuranosyl)-7H-pyrrolo[2,3-d]pyrimidine]
153 to 156	C[C@@]1(O)[C@H](O)[C@@H](COP2(=O)OCC[C@@H](c3cccc(C#N)c3)O2)O[C@H]1n1cnc2c(N)ncnc21 (stereo partly drawn) [Compound 21.2, cis-5′-O-[4-(3-cyanophenyl)-2-oxo-1,3,2-dioxaphosphorinan-2-yl]-2′-C-beta-methyl-adenosine]
180 to 190	C[C@@]1(O)[C@H](O)[C@@H](COP2(=O)OCC[C@@H](c3ccccn3)O2)O[C@H]1n1ccc2c(=O)[nH]c(N)nc21 (stereo partly drawn) (as salt: trifluoroacetic acid salt) [Compound 17.8, 2-amino-7-(cis-5′-O-[4-(pyridin-2-yl)-2-oxo-1,3,2-dioxaphosphorinan-2-yl]-2′-C methyl-beta-D-ribofuranosyl)-7H-pyrrolo[2,3-d]pyrimidin-4(3H)-one trifluoroacetic acid salt]
170 to 173	C[C@@]1(O)[C@H](O)[C@@H](COP2(=O)OCC[C@@H](c3cc(F)ccc3F)O2)O[C@H]1n1ccc2c(=O)[nH]c(N)nc21 (stereo partly drawn) [Compound 17.6, 2-amino-7-(cis-5′-O-[4-(2,5-difluorophenyl)-2-oxo-1,3,2-dioxaphosphorinan-2-yl]-2′-C methyl-beta-D-ribofuranosyl)-7H-pyrrolo[2,3-d]pyrimidin-4(3H)-one]
